Results from PMC5062169, “Structural basis for ligand recognition by a Cache chemosensory domain that mediates carboxylate sensing in Pseudomonas syringae” (Scientific Reports, 2016).

Target: T1, PscD (PscD-SD, Cache sensor domain of chemoreceptor PscD) (Pseudomonas syringae, UniProt A0ABY1U976)
T1 construct: gene CFBP3846_03581; sensor domain, Gln31-Trp188, N-terminal His6 tag
T1 sequence (A0ABY1U976 31-188): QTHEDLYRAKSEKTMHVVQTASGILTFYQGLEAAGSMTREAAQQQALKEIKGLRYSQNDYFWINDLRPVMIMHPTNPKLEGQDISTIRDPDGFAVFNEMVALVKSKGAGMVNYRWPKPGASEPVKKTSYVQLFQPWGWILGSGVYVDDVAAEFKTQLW
Set-up: fluorescence thermal shift (SYPRO Orange) screen of Biolog PM1/PM2 compounds, delta Tm
Conditions: Biolog plate compound, exact concentration unknown; binder
From the text: We used high-throughput fluorescence thermal shift (FTS) assays (as described previously[16]) to screen for potential ligands of PscD-SD. FTS assays are based on the principle that ligands stabilise proteins upon binding, causing an increase in the melting temperature of the protein[22][23]. Binding can therefore be rapidly screened by measuring the difference in the temperature midpoint of unfolding (ΔTm) of a protein in the presence and absence of potential ligands. In our FTS assays, the Tm was measured by monitoring an increase in fluorescence of a dye with affinity for hydrophobic parts of the protein (i.e. SYPRO Orange), which are exposed as the protein unfolds. We screened the recombinant PscD-SD protein in FTS assays against the compounds in Biolog Phenotype Microarray (PM) plates 1 and 2 (Supplementary Tables 1 and 2). Each plate contains 95 different compounds (e.g., organic acids, sugars) and a water (no ligand) control. For use in FTS assays, the compounds were resuspended directly in water, thus generating a library of biologically relevant potential ligands. […] Fluorescent thermal shift (FTS) assays were conducted as reported previously. PscD-SD was screened for potential ligands against Biolog Phenotype Microarray (PM) plates 1 and 2 (Biolog, Hayward, CA, USA). For initial qualitative, high-throughput screening, ligands were prepared by dissolving Biolog PM compounds in 50 μL of water (each) to obtain a final concentration of approximately 10–20 mM (the exact concentrations vary from well-to-well). Screens were set up in Lightcycler 480 multiwell plates (Roche Diagnostics, Auckland, NZ) with 20 μM protein, a 5x concentration of SYPRO orange (Life Technologies, Carlsbad, CA, USA) and 5 μL of the test compound (i.e. resuspended Biolog ligands) added to each well. The plate was covered with Lightcycler 480 sealing film (Roche Diagnostics) and fluorescence signal was monitored as the temperature was increased from 20 °C to 80 °C at a rate of 1.2 °C.min^−1 in a Lightcycler 480 (Roche Diagnostics). Initial hits were further tested using known concentrations (0, 1, 2, 5 and 10 mM) of each potential ligand to confirm binding. The ligands were prepared as 10x stocks, 2 μL were added to each well, and the experiments were conducted as described above. The first derivative values (−dF/dt) from the raw fluorescence data were used to determine the melting temperature (Tm). Three biological replicates (from independently cultured and purified batches of protein) were performed for each plate screened.

Structure (SMILES) | Δ Tm
CC(O)CC(=O)O (stereo not drawn) [β-Hydroxy Butyric Acid] | 0.03 ± 0.05 °C
OC[C@H]1O[C@@H](O)[C@H](O)[C@H](O)[C@@H]1O [β-D-Allose] | 0.08 ± 0.00 °C
CC(C)C[C@H](N)C(=O)O [L-Leucine] | 0.05 ± 0.03 °C
O=C(CO)[C@@H](O[C@H]1O[C@H](CO)[C@@H](O)[C@H](O)[C@H]1O)[C@H](O)[C@H](O)CO [Turanose] | 0.03 ± 0.03 °C
OC[C@@H](O)[C@@H](O[C@H]1O[C@H](CO)[C@@H](O)[C@H](O)[C@H]1O)[C@H](O)[C@@H](O)CO [Maltitol] | 0.05 ± 0.05 °C
N[C@H]1C(O)O[C@H](CO)[C@@H](O)[C@@H]1O (stereo partly drawn) [D-Glucosamine] | -0.25 ± 0.03 °C
OCc1ccccc1O[C@@H]1O[C@H](CO)[C@@H](O)[C@H](O)[C@H]1O [Salicin] | 0.08 ± 0.00 °C
OC[C@H]1O[C@H](OC[C@H]2O[C@H](O[C@]3(CO)O[C@H](CO)[C@@H](O)[C@@H]3O)[C@H](O)[C@@H](O)[C@@H]2O)[C@H](O)[C@@H](O)[C@H]1O [D-Raffinose] | 0.00 ± 0.00 °C
C[C@@H](O)[C@H](O)[C@H](O)[C@@H](O)C=O [D-Fucose] | 0.10 ± 0.11 °C
OC[C@H]1O[C@H](OC[C@H]2O[C@H](OC[C@H]3O[C@H](O[C@]4(CO)O[C@H](CO)[C@@H](O)[C@@H]4O)[C@H](O)[C@@H](O)[C@@H]3O)[C@H](O)[C@@H](O)[C@H]2O)[C@H](O)[C@@H](O)[C@H]1O [Stachyose] | 0.05 ± 0.05 °C
NC(=O)CCC(=O)O [Succinamic Acid] | 0.18 ± 0.10 °C
O=C(O)[C@@H]1C[C@@H](O)CN1 [Hydroxy-L-Proline] | 0.03 ± 0.05 °C
C=C(CC(=O)O)C(=O)O [Itaconic Acid] | -0.05 ± 0.33 °C
CC(=O)N[C@H]1C(O)O[C@H](CO)[C@H](O)[C@@H]1O (stereo partly drawn) [N-Acetyl-D-Galactosamine] | 0.00 ± 0.00 °C
C/C(=C/C(=O)O)C(=O)O [Citraconic Acid] | 0.08 ± 0.00 °C
NCCCC[C@H](N)C(=O)O [L-Lysine] | 0.10 ± 0.11 °C
CC(=O)N[C@@H](CCC(=O)O)C(=O)O [N-Acetyl-L-Glutamic Acid] | 0.08 ± 0.00 °C
N#C[C@H](O[C@@H]1O[C@H](CO[C@@H]2O[C@H](CO)[C@@H](O)[C@H](O)[C@H]2O)[C@@H](O)[C@H](O)[C@H]1O)c1ccccc1 [Amygdalin] | 0.03 ± 0.03 °C
O=CC[C@H](O)[C@H](O)CO [2-Deoxy-D-Ribose] | 0.66 ± 0.05 °C
O=C(O)CCCO [γ-Hydroxy Butyric Acid] | 0.08 ± 0.00 °C
OC[C@@H](O)C(O)[C@H](O)CO [D-Arabitol] | 0.00 ± 0.05 °C
O=C(O)c1ccccc1O [2-Hydroxy Benzoic Acid] | 0.00 ± 0.04 °C
O=C(O)c1ccc(O)cc1 [4-Hydroxy Benzoic Acid] | 0.03 ± 0.03 °C
N[C@@H](Cc1ccccc1)C(=O)O [L-Phenylalanine] | 0.08 ± 0.00 °C
CC(=O)N[C@H]1[C@H]([C@H](O)[C@H](O)CO)OC(O)(C(=O)O)C[C@@H]1O (stereo partly shown) [N-Acetyl-Neuraminic Acid] | 0.08 ± 0.00 °C

Structure (SMILES) | Δ Tm
CC[C@H](C)[C@H](N)C(=O)O [L-Isoleucine] | 0.08 ± 0.00 °C
CSCC[C@H](N)C(=O)O [L-Methionine] | 0.43 ± 0.39 °C
OC[C@H]1O[C@@H]2O[C@H]3[C@H](O)[C@@H](O)[C@@H](O[C@H]4[C@H](O)[C@@H](O)[C@@H](O[C@H]5[C@H](O)[C@@H](O)[C@@H](O[C@H]6[C@H](O)[C@@H](O)[C@@H](O[C@H]7[C@H](O)[C@@H](O)[C@@H](O[C@H]1[C@H](O)[C@H]2O)O[C@@H]7CO)O[C@@H]6CO)O[C@@H]5CO)O[C@@H]4CO)O[C@@H]3CO [α-Cyclodextrin] | 0.08 ± 0.0 °C
O=C(CO)[C@@H](O)[C@@H](O)[C@H](O)CO [D-Tagatose] | 0.00 ± 0.04 °C
NCCCC(=O)O [γ-amino butyric acid] | 0.05 ± 0.03 °C
OC[C@@]12OC[C@@H](O1)[C@@H](O)[C@@H](O)[C@@H]2O [Sedoheptulosan] | 0.08 ± 0.00 °C
O=C(CO)CO [Dihydroxyacetone] | 0.35 ± 0.14 °C
C[C@@H](O)[C@@H](C)O [2,3-Butanediol] | 0.05 ± 0.03 °C
CO[C@H]1O[C@H](CO)[C@@H](O)[C@H](O)[C@@H]1O [α-Methyl-D-Mannoside] | 0.05 ± 0.03 °C
O=C(O)CCCCCCCCC(=O)O [Sebacic Acid] | 0.48 ± 0.09 °C
OC[C@@H](O)[C@@H](O[C@@H]1O[C@H](CO)[C@H](O)[C@H](O)[C@H]1O)[C@H](O)[C@@H](O)CO [Lactitol] | 0.08 ± 0.00 °C
N=C(N)NCCC[C@H](N)C(=O)O [L-Arginine] | 0.03 ± 0.03 °C
NCCCCN [Putrescine] | 0.03 ± 0.05 °C
O=C(O)[C@]1(O)C[C@@H](O)[C@@H](O)[C@H](O)C1 [Quinic Acid] | 0.00 ± 0.04 °C
O=C1CC[C@@H](C(=O)O)N1 [L-Pyroglutamic Acid] | 0.08 ± 0.00 °C
C[C@H](N)C(N)=O [L-Alaninamide] | 0.08 ± 0.00 °C
C/C=C/C=C/C(=O)O [Sorbic Acid] | 0.65 ± 0.09 °C
CC(N)=O [Acetamide] | 0.00 ± 0.00 °C
OC[C@H]1O[C@@H](Oc2ccc(O)cc2)[C@H](O)[C@@H](O)[C@@H]1O [Arbutin] | 0.03 ± 0.05 °C
N[C@@H](Cc1c[nH]cn1)C(=O)O [L-Histidine] | 0.00 ± 0.04 °C
O=C(CO)[C@@H](O)[C@H](O)[C@@H](O)C(=O)O [5-keto-D-Gluconic Acid] | 0.10 ± 0.02 °C
OC[C@H]1O[C@@](CO)(O[C@H]2O[C@H](CO)[C@@H](O)[C@H](O)[C@H]2O)[C@@H](O[C@H]2O[C@H](CO)[C@@H](O)[C@H](O)[C@H]2O)[C@@H]1O [D-Melezitose] | 0.03 ± 0.03 °C
CCC(C)N (stereo not shown) [Sec-Butylamine] | 0.00 ± 0.04 °C
CO[C@@H]1OC[C@@H](O)[C@H](O)[C@H]1O [β-Methyl-D-Xyloside] | 0.10 ± 0.11 °C
COC(=O)[C@@H](C)O [D-Lactic Acid Methyl Ester] | 0.00 ± 0.00 °C

Same assay, conditions: Biolog plate compound, exact concentration unknown; binder; Δ Tm

Structure (SMILES) | Δ Tm
O=C(O)[C@H](O)[C@@H](O)C(=O)O [L-Tartaric Acid] | 0.33 ± 0.29 °C
O=C(O)[C@@H](O)[C@H](O)C(=O)O [D-Tartaric Acid] | 0.10 ± 0.11 °C
